Laboratory results from patent EP4678638A1, “NEW E3 UBIQUITIN LIGASE LIGAND, PROTEIN DEGRADATION AGENT AND USE THEREOF” (priority 2023, dated 2024).
Like-named read-outs stand apart in the source and are kept apart here.

Assays:
[1] = target: T1, FAK (Homo sapiens, UniProt Q05397); assay: Western blot degradation of FAK; format: cell-based; conditions: Table D7
T1 construct: evaluate the effects of the compounds of the present disclosure on the expression of target proteins in cells; endogenous in cells
Experimental: Conventional Western blot assay was performed to evaluate the effects of the compounds of the present disclosure on the expression of target proteins in cells.
(1) Cell Seeding and Protein Harvesting: The selected cells were processed according to the cell seeding procedure and protein harvesting procedure in Table III-2. Table III-2 Cell Seeding and Protein Harvesting Procedures
(2) To the collected supernatant, 5X SDS sample loading buffer was added, followed by denaturation at 95°C for 5 minutes. The denatured samples were then separated by SDS-PAGE electrophoresis on a polyacrylamide gel. Proteins were transferred to a nitrocellulose membrane (0.45 µm NC membrane), blocked with blocking buffer at room temperature for 1 hour, and subjected to antibody incubation and development procedures according to the antibody manufacturer's instructions (Cell Signaling Technology).
Half-Maximal Degradation Concentration value (the drug concentration required for degrading proteins by 50%, abbreviated as DC50) reads method: comparing the grayscale values of Western blot bands from drug-treated samples with those from blank DMSO-treated controls, and identifying the drug concentration range at which the grayscale value is half that of the DMSO-treated control bands.
DC50 values can be calculated using ImageJ software to measure grayscale values of Western blot bands from drug-treated samples. The concentration-response curve is fitted to estimate the drug concentration corresponding to half the grayscale value.
Target protein remaining (%) refers to the percentage of target protein remaining in hPBMC cells after treatment with protein degrader compounds.
Calculation method for target protein remaining (%): Use ImageJ software to measure grayscale values of Western blot bands from drug (protein degrader)-treated samples. The grayscale value of drug-treated bands is divided by that of internal control protein bands, and the resulting quotient is normalized to obtain the relative percentage of remaining target protein after protein degrader treatment.
Target protein degradation rate (%) = 100% - target protein remaining (%).

[2] = system: SR; assay: CCK-8 proliferation, SR; format: cell-based, Human; conditions: Homo sapiens; Table B10, compounds designed based on the IRAK4 inhibitors; SR cells; read-out: Inhibitory activity (IC50, nM) on tumor cell proliferation, SR
Outline: (§1)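 CCK-8 viability readout; IC50 from growth-inhibition curve fitting. Cells plated, dosed 24h later with a 10-point series, top 10µM, 5-fold steps. Culture at 37°C, 5% CO2.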

[3] = system: MM.1S; assay: CCK-8 proliferation, MM.1S; format: cell-based; conditions: Homo sapiens, MM1.S; Table B10, compounds designed based on the IRAK4 inhibitors; MM.1S cells; read-out: Inhibitory activity (IC50, nM) on tumor cell proliferation, MM.1S
Outline: as §1

[4] = system: Jurkat; assay: CCK-8 proliferation, Jurkat; format: cell-based, Human; conditions: Homo sapiens
Experimental: The tumor cells used herein were cultured in a cell culture medium listed in table A1 at 37°C in an incubator with 5% CO2. Prior to experimentation, all cell lines used were correctly identified by STR profiling, and tested negative for mycoplasma contamination using a mycoplasma detection kit through routine screenings. Table A1. Tumor cells and cell culture medium used in the present disclosure
IC50 values of the compounds of the present disclosure (including the compounds in Table 1, and compounds of examples) were measured using the Meilun Cell Counting Kit-8 kit from Dalian Meilun Biotech Co., Ltd. Assay details are as follows: tumor cells were seeded in a 96-well plate at a density listed in Table A2. After 24h, 100 µL of the inoculated cells were treated with 0.5µL of the compounds of the present disclosure (including the compounds in Tables 1 and 2, and compounds of examples) at 10 different successively decreasing concentrations (starting at the highest concentration of 10µM; 5-fold serial dilutions). After the cells were treated with the compounds of the present disclosure for a period of time, the cell viability detection reagent was added to the culture medium for cell viability assessment according to the instructions provided with the CCK-8 kit. […] The growth inhibition of the compounds of the present disclosure on cells was plotted by Prism Graphpad software, and the IC50 values of the compounds of the present disclosure were calculated therefrom. […] Seeding protocol and treatment time for tumor cells

[5] = target: T2, IRAK4 (Homo sapiens, UniProt Q9NWZ3); assay: Western blot degradation of IRAK4 (hPBMC); format: cell-based; conditions: Table D1
T2 construct: evaluate the effects of the compounds of the present disclosure on the expression of target proteins in cells; endogenous in cells; host or cells: hPBMC
T2 sequence (Q9NWZ3 1-460): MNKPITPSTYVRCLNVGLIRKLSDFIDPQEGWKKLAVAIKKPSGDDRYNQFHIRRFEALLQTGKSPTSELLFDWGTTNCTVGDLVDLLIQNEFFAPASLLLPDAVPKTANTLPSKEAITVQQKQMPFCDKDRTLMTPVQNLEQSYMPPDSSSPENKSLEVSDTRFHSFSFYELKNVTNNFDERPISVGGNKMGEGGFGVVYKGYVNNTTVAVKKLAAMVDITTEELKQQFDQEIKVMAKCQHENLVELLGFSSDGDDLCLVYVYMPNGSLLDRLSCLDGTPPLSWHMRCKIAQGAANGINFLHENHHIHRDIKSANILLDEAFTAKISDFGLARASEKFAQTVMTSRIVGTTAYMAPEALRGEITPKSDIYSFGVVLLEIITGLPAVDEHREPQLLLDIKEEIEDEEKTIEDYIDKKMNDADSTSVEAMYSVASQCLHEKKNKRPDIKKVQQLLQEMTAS
Outline: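 Degradation is assessed by immunoblotting lysates of treated cells. Target bands are quantified by grayscale and normalised to an internal control, so degradation rate equals 100% minus % remaining.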

[6] = system: CCRF-CEM; assay: CCK-8 proliferation, CCRF-CEM; format: cell-based, Human; conditions: Homo sapiens, CCRF-CEM; CCK-8; 96 hours; read-out: Inhibitory activity (IC50) on tumor cell proliferation, CCRF-CEM
Outline: as §1

[7] = Jurkat, CCK-8, 96 hours, read-out: Inhibitory activity (IC50) on tumor cell proliferation, Jurkat

T1 sequence (Q05397 whole entry, species assumed): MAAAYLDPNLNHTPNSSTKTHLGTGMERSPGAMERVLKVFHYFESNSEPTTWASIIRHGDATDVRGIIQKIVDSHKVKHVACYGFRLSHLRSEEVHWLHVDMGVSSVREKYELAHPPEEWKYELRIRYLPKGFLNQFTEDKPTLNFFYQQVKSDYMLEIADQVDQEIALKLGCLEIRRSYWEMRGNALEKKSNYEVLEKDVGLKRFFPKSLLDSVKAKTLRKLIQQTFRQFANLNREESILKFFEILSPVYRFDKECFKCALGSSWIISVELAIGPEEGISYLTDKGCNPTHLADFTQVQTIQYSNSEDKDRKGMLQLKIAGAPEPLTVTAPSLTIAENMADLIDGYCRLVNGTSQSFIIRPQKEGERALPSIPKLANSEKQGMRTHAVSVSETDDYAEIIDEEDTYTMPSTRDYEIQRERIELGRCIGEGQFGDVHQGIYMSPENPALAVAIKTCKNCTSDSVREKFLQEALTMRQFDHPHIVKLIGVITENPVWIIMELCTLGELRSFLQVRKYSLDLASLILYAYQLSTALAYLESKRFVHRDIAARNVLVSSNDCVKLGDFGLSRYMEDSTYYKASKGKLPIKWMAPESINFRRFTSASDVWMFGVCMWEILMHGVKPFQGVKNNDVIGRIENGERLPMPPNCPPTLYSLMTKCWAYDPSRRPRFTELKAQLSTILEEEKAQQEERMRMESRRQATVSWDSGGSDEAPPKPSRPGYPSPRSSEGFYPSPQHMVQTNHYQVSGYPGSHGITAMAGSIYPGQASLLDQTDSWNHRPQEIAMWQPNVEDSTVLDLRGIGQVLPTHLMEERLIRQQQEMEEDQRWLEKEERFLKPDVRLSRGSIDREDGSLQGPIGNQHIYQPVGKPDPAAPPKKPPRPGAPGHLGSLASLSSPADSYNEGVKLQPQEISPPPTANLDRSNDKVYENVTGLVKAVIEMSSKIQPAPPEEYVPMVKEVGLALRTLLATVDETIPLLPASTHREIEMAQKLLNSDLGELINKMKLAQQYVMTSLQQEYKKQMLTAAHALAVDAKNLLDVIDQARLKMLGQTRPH

| SMILES | Degradation of substrate protein FAK (substrate protein remaining %) [1] | further results |
| --- | --- | --- |
| CS(=O)(=O)c1cccc(CNc2nc(Nc3ccc(N4CCN(Cc5ccc(C6CCC(=O)NC6=O)cc5)CC4)cc3)ncc2C(F)(F)F)c1 (stereo not shown) [GT-03822, 3-(4-((4-(4-((4-((3-(methylsulfonyl)benzyl)amino)-5-(trifluoromethyl)pyrimidin-2-yl)amino)phenyl)piperazin-1-yl)methyl)phenyl)piperidine-2,6-dione] | A (A is defined as 0% ≤ substrate protein remaining % ≤ 80%) |  |
| CS(=O)(=O)c1cccc(CNc2nc(Nc3ccc(N4CCN(Cc5ccc(C6CCC(=O)NC6=O)c(F)c5)CC4)cc3)ncc2C(F)(F)F)c1 (stereo not shown) [GT-03823, 3-(2-fluoro-4-((4-(4-((4-((3-(methylsulfonyl)benzyl)amino)-5-(trifluoromethyl)pyrimidin-2-yl)amino)phenyl)piperazin-1-yl)methyl)phenyl)piperidine-2,6-dione] | A (A is defined as 0% ≤ substrate protein remaining % ≤ 80%) |  |
| CNC(=O)c1ccccc1Nc1cc(Nc2cc(C)c(N3CCN(Cc4ccc(C5CCC(=O)NC5=O)c(F)c4)CC3)cc2OC(C)C)ncc1C(F)(F)F (stereo not shown) [GT-03947, 2-((2-((4-(4-(4-(2,6-dioxopiperidin-3-yl)-3-fluorobenzyl)piperazin-1-yl)-2-isopropoxy-5-methylphenyl)amino)-5-(trifluoromethyl)pyridin-4-yl)amino)-N-methylbenzamide] | A (A is defined as 0% ≤ substrate protein remaining % ≤ 80%) |  |
| CNC(=O)c1ccccc1Nc1cc(Nc2cc(C)c(C3CCN(Cc4ccc(C5CCC(=O)NC5=O)cc4)CC3)cc2OC(C)C)ncc1C(F)(F)F (stereo not shown) [GT-04084, 2-((2-((4-(1-(4-(2,6-dioxopiperidin-3-yl)benzyl)piperidin-4-yl)-2-isopropoxy-5-methylphenyl)amino)-5-(trifluoromethyl)pyridin-4-yl)amino)-N-methylbenzamide] | A (A is defined as 0% ≤ substrate protein remaining % ≤ 80%) |  |
| CNC(=O)c1ccccc1Nc1cc(Nc2cc(C)c(C3CCN(Cc4ccc(C5CCC(=O)NC5=O)c(F)c4)CC3)cc2OC(C)C)ncc1C(F)(F)F (stereo not shown) [GT-04085, 2-((2-((4-(1-(4-(2,6-dioxopiperidin-3-yl)-3-fluorobenzyl)piperidin-4-yl)-2-isopropoxy-5-methylphenyl)amino)-5-(trifluoromethyl)pyridin-4-yl)amino)-N-methylbenzamide] | A (A is defined as 0% ≤ substrate protein remaining % ≤ 80%) |  |
| CS(=O)(=O)c1cccc(CNc2nc(Nc3ccc(N4CCN(Cc5cccc(N6CCC(=O)NC6=O)c5)CC4)cc3)ncc2C(F)(F)F)c1 [GT-04178, 1-(3-((4-(4-((4-((3-(methylsulfonyl)benzyl)amino)-5-(trifluoromethyl)pyrimidin-2-yl)amino)phenyl)piperazin-1-yl)methyl)phenyl)dihydropyr imidine-2,4(1H,3H)-dione] | A (A is defined as 0% ≤ substrate protein remaining % ≤ 80%) |  |
| O=C1CCC(Nc2cccc(CN3CCC(N4CCN(c5ccc6c(c5)nc(NC(=O)c5cccc(C(F)(F)F)c5)n6[C@H]5CC[C@@H](CO)CC5)CC4)CC3)c2)C(=O)N1 (stereo partly shown) [GT-05023, N-(5-(4-(1-(3-((2,6-dioxopiperidin-3-yl)amino)benzyl)piperidin-4-yl)piperazin-1-yl)-1-((1s,4s)-4-(hydroxymethyl)cyclohexyl) -1H-benzo[d]imidazol-2-yl)-3-(trifluoromethyl)benzamide] |  | IC50 [2]: 500 to 1000 nM; IC50 [3]: 500 to 1000 nM; IC50 ([4]; Table B10, compounds designed based on the IRAK4 inhibitors, Jurkat cells, read-out: Inhibitory activity (IC50, nM) on tumor cell proliferation, Jurkat): 500 to 1000 nM; Degradation of substrate protein IRAK4 (substrate protein remaining %) [5]: A (A is defined as 0% ≤ substrate protein remaining % ≤ 80%) |
| CN(c1nccnc1CNc1nc(Nc2ccc(N3CCN(Cc4ccc(N5CCC(=O)NC5=O)cc4)CC3)cc2)ncc1C(F)(F)F)S(C)(=O)=O [GT-07400, N-(3-(((2-((4-(4-(4-(2,4-dioxotetrahydropyrimidin-1(2H)-yl)benzyl)piperazin-1-yl)phenyl)amino)-5-(trifluoromethyl)pyrimidin-4-yl)amino)methyl)pyrazin-2-yl)-N-methylmethanesulfonamide] | A (A is defined as 0% ≤ substrate protein remaining % ≤ 80%) |  |
| CN(c1nccnc1CNc1nc(Nc2ccc(N3CCN(Cc4cccc(N5CCC(=O)NC5=O)c4)CC3)cc2)ncc1C(F)(F)F)S(C)(=O)=O [GT-07401, N-(3-(((2-((4-(4-(3-(2,4-dioxotetrahydropyrimidin-1(2H)-yl)benzyl)piperazin-1-yl)phenyl)amino)-5-(trifluoromethyl)pyrimidin-4-yl)amino)methyl)pyrazin-2-yl)-N-methylmethanesulfonamide] | A (A is defined as 0% ≤ substrate protein remaining % ≤ 80%) |  |
| CC1(C)CCC(c2ccc(Cl)cc2)=C(CN2CCN(c3ccc(C(=O)NS(=O)(=O)c4ccc(N[C@H](CCN5CCN(Cc6cc(N7CCC(=O)NC7=O)ncc6F)CC5)CSc5ccccc5)c(S(=O)(=O)C(F)(F)F)c4)cc3)CC2)C1 [GT-07716, (R)-4-(4-((4'-chloro-4,4-dimethyl-3,4,5,6-tetrahydro-[1,1'-biphenyl]-2-yl)methyl)piperazin-1-yl)-N-((4-((4-(4-((2-(2,4-dioxotetrahydropyrimidin-1(2H)-yl)-5-fluoropyridin-4-yl)methyl)piperazin-1-yl)-1-(phenylthio)butan-2-yl)amino)-3-((trifluoromethyl)sulfonyl)phenyl)sulfonyl)benzamide] |  | IC50 [6]: 10 to 50 nM; IC50 [4, 7]: 50 to 100 nM |
| CC1(C)CCC(c2ccc(Cl)cc2)=C(CN2CCN(c3ccc(C(=O)NS(=O)(=O)c4ccc(N[C@H](CCN5CCN(Cc6ccnc(N7CCC(=O)NC7=O)c6)CC5)CSc5ccccc5)c(S(=O)(=O)C(F)(F)F)c4)cc3)CC2)C1 [GT-07717, (R)-4-(4-((4'-chloro-4,4-dimethyl-3,4,5,6-tetrahydro-[1,1'-biphenyl]-2-yl)methyl)piperazin-1-yl)-N-((4-((4-(4-((2-(2,4-dioxotetrahydropyrimidin-1(2H)-yl)pyridin-4-yl)methyl)piperazin-1-yl)-1-(phenylthio)butan-2-yl)amino)-3-((trifluoromethyl)sulfonyl)phenyl)sulfonyl)benzamide] |  | IC50 [6]: 10 to 50 nM; IC50 [4, 7]: 10 to 50 nM |
